In patent publication US20240226234A1, “WNT5A PEPTIDES FOR THE TREATMENT OF ACUTE M[…]” (W[…], priority 2021, published 2024):
No end group written: not given here. *: point of attachment. For = O=C*

Experiments:
Type in all cases: cell-based, human
U937 cells [1] = assay: Cell growth assay, U937 cells; conditions: Foxy-5 100 μM, 72 h
Description: (§1) A panel of human myeloid leukemia cell lines (HL60, K562, KG1a, THP1 and U937) and HS-5 mesenchymal stromal cells lineage were cultured in Roswell Park Memorial Institute medium-1640 (RPMI; Sigma) containing 10% Fetal Bovine Serum (Gibco), glutamine (2 mM; Sigma), penicillin (100 μg/mL; Sigma), streptomycin (100 μg/mL; Sigma), and amphotericin B (0.25 μg/mL; Gibco). The cells were maintained in a humidified atmosphere at 37° C. and 5% CO2 and the experiments were performed when they reached exponential growth. For the assays, cells were seeded on a 24-well plate and treated or not with Foxy-5 for 72 hours.
(§2) Cells treated with Foxy or with vehicle were collected and cell number was evaluated by manual counting in monoculture and by microscopy with Image J software analysis in 2D culture.
(§3) Next, we evaluated the proliferation rates since this process is modulated by ROS. We treated the cells with Foxy-5 (100 μM) or with vehicle (DMSO) during 72 hours, and then cell growth was analyzed by counting the cells in monoculture, manually, or by the Image J software analysis of the 2D cultures. […] Similar results were obtained in the 2D culture system using leukemia cells and HS-5 mesenchymal stromal cells.

U937 cells [2] = assay: Transwell chemotaxis assay toward CXCL12, U937 cells; conditions: U937, Foxy-5 100 μM 72 h pretreatment, CXCL12 100 ng/mL, 24 h
Description: Leukemic cell lines, pretreated or not with Foxy-5 (72 hours of stimulation) were tested for chemotaxis in Transwell-based assays for Chemotaxis (6.5 mm diameter, 8 μm pore size; Corning). Polycarbonate membranes were incubated with poly-L-lysine (1 mg/mL) for 1 hour at 37° C. followed by saline buffer washing. Briefly, cells were collected, washed with media containing bovine serum albumin (0.1% BSA; Sigma), and then seeded at a density of 5×10^5 cells into the upper chamber of the transwell. The lower chamber was filled with media containing 0.5% BSA (negative control), media containing 10% FBS (positive control) and media 5 containing 0.5% BSA with CXCL12 (100 ng/ml; Peprotech) (Melo et al., 2014). Following 6 h or 24 h of incubation at 37° C., cells that migrated into the lower chamber were collected, centrifuged, resuspended in saline buffer and counted. The number of migrated cells was expressed as a percentage of the input, i.e., the cells number applied directly to the lower compartment in parallel wells. The migration of cells was normalized to 100%+/−standard deviation (SD) of triplicates (Favaro et al., 2013).
We investigated whether restoring of WNT5A could enable the modulation CXCL12-induced chemotaxis of leukemia cells. […]

K562 cells = assay: ROS production by flow cytometry, K562 cells; conditions: 72 h; for ROS production (MFI): K562, 2D culture on HS5 stromal cells; for ROS production (mean fluorescence intensity): K562, monoculture
Description: as §1
(§4) Cells treated with Foxy or with vehicle were collected and intracellular ROS generation was measured by flow cytometry following staining with DCFDA ([…]; Sigma). Acquisition of cells was performed on a FACScalibur flow cytometer (BD) and analysis was carried out using the FlowJo software.
(§5) Leukemia cell lines were treated for 72 h with Foxy-5, at doses of 50 and 100 μM, or vehicle, stained with DCFHA dye, and analyzed by flow cytometry.

HL60 cells [3] = assay: ROS production by flow cytometry, HL60 cells; conditions: 72 h; for ROS production (MFI): HL60, 2D culture on HS5 stromal cells; for ROS production (mean fluorescence intensity): HL60, monoculture
Description: as §1, §4, §5

HL60 cells [4] = assay: Cell growth assay, HL60 cells; conditions: Foxy-5 100 μM, 72 h
Description: as §1, §2, §3

KG1a cells = assay: ROS production by flow cytometry, KG1a cells; conditions: 72 h; for ROS production (MFI): 2D culture on HS5 stromal cells; for ROS production (mean fluorescence intensity): monoculture
Description: as §1, §4, §5

U937 cells [5] = assay: Cell differentiation assay with PMA, U937 cells; conditions: U937, PMA (200 nM), 72 hours, morphology by microscopy
Description: Cells were subjected to treatment with Foxy-5 or with vehicle, in the presence or absence of PMA (200 nM). After 72 hours, adherent cells were washed with PBS and their morphology was examined using a Zeiss Axi-oskope 2 Plus microscope (Carl Zeiss AG). The program ImageJ was used to assess differentiation.
PMA reagent is a typical inducer of AML cell differentiation through generation of ROS. As U937 leukemia cell lineage corresponds to a model of differentiated monocyte and/or macrophage following treatment with PMA, we examined the effects of Foxy-5 treatment on U937 differentiation-inducing PMA. Following treatment with PMA for 72 hours, cells were examined by microscopy to detect morphology. The majority of cells treated with vehicle and stimulated with PMA differentiated into macrophages and adhered to the plates.

Substance: Foxy-5: Formylated hexapeptide fragment of WNT5A: MDGCEL (SEQ. ID. NO. 3) with methionine in position 1 as N-formyl methionine; WNT5A-mimicking compound (For-MDGCEL; listed as Homo sapiens)
- reduced cell growth compared to vehicle treated cells (U937 cells [1]; U937, 2D culture with HS-5 stromal cells): 1.72 fold decrease
- reduced cell growth compared to vehicle treated cells (U937 cells [1]; U937, monoculture): 1.75 fold decrease
- CXCL12-induced chemotaxis (migrated cells as percentage of the input, average) (U937 cells [2]): 40.35%
- ROS production (MFI) (K562 cells; Foxy-5 50 μM): 126.00 (range 125.000-128.20) MFI
- ROS production (MFI) (K562 cells; Foxy-5 100 μM): 98.25 (range 98.25-104.00) MFI
- ROS production (mean fluorescence intensity) (K562 cells; Foxy-5 50 μM): 83.90 (range 75.80-88.40) MFI
- ROS production (mean fluorescence intensity) (K562 cells; Foxy-5 100 μM): 68.75 (range 64.40-72.75) MFI
- ROS production (MFI) (HL60 cells [3]; Foxy-5 50 μM): 28.52 (range 26.37-30.00) MFI
- ROS production (MFI) (HL60 cells [3]; Foxy-5 100 μM): 28.50 (range 25.03-30.30) MFI
- ROS production (mean fluorescence intensity) (HL60 cells [3]; Foxy-5 50 μM): 17.45 (range 16.40-19.30) MFI
- ROS production (mean fluorescence intensity) (HL60 cells [3]; Foxy-5 100 μM): 10.32 (range 10.10-10.80) MFI
- reduced cell growth compared to vehicle treated cells (HL60 cells [4]; HL60, 2D culture with HS-5 stromal cells): 1.56 fold decrease
- reduced cell growth compared to vehicle treated cells (HL60 cells [4]; HL60, monoculture): 1.22 fold decrease
- ROS production (MFI) (KG1a cells; Foxy-5 50 μM): 75.03 (range 75.03-77.70) MFI
- ROS production (MFI) (KG1a cells; Foxy-5 100 μM): 69.00 (range 68.00-72.00) MFI
- ROS production (mean fluorescence intensity) (KG1a cells; Foxy-5 50 μM): 36.30 (range 35.80-36.80) MFI
- ROS production (mean fluorescence intensity) (KG1a cells; Foxy-5 100 μM): 29.72 (range 28.10-31.33) MFI
- PMA-mediated differentiation compared with PMA-stimulated cells treated with vehicle (U937 cells [5]): reduced PMA-mediated differentiation
